# Entries after “also recorded” stand apart in the source; their conditions may differ. Where a name gives a salt, the structure may show the parent alone. Read-outs that look alike come from different tables or passages of the source.
# What was measured:
# serotonin [1] = test: antiserotonin action in connection with stomach ulceration in the rat; type: in vivo; conditions: sc
# Protocol: The antiserotonin action in connection with stomach ulceration has been studied in the rat under the following conditions:
# 30 mg/kg of serotonin is administered subcutaneously to female rats in two stages, with an interval of 16 hours. The product being studied is administered subcutaneously at the same time as the serotonin, in two stages with increasing doses. A group of 30 animals is used for each dose and a group of 60 animals is used as the control. The animals are sacrificed 22 hours after the first injection of serotonin, and their stomachs are taken out and examined. The percentage protection for each dose studied is determined, then the DE50, the dose protecting 50% of the animals, from gastric ulceration, is measured graphically.
# serotonin [2] = test: antiserotonin action in respect of bronchospasm in the guinea-pig, method of Konzett and Rossler; type: in vivo; conditions: serotonin 20 μg/kg intravenously, anaesthetised guinea-pigs
# Protocol: The antiserotonin action in respect of bronchospasm has been studied in the guinea-pig under the following conditions:
# The bronchospasm is recorded by the method of Konzett and Rossler, which comprises connecting the trachea of the guinea-pig to an artificial respiration pump, which passes a constant volume of air, slightly greater than the respiratory capacity of the animal, into the bronchi at a physiological rhythm. The excess quantity of air, which varies according to the diameter of the bronchi, is discharged to a special manometric device which measures the volume of air at each inhalation.
# The serotonin is administered intravenously to the guinea-pigs in a dose of 20 μg/kg. The guinea-pigs have previously been anaesthetised with ethyl carbamate, thus producing a bronchial spasm.
# The product to be studied is then administered intravenously, after which the administration of serotonin is repeated one minute later. The percentage inhibition of bronchospasm is measured for each dose of the product to be studied, then the antiserotonin DE50 relative to bronchospasm in the guinea-pig is determined.
# apomorphine = test: antiemetic power relative to apomorphine, dogs, method of Chen and Ensor; type: in vivo, dog; conditions: s.c. 30 minutes before apomorphine 100 μg/kg s.c.; for ED50: Canis lupus familiaris, sc, read-out: Antiapomorphine ED50 in the dog
# Protocol: The compounds of the invention have undergone other pharmacodynamic tests, and in particular their antiemetic power relative to apomorphine has been measured.
# The test has been carried out on dogs by the method of Chen and Ensor.
# The compounds of the invention are administered subcutaneously, 30 minutes before the apomorphine, which is administered subcutaneously in a dose of 100 μg/kg.
# [3] = acute toxicity in mice (LD50); type: in vivo; conditions: mouse, in vivo, male mouse
# Excerpt: (§1) The acute toxicity of the compounds according to the invention has been studied in mice. The lethal doses 50 are set out in the table which follows:
# (§2) LD50 DETERMINED IN THE MALE MOUSE -
# male rats = test: cataleptic action in male rats, subcutaneous; type: in vivo, rat; conditions: 200 mg/kg subcutaneously, after 7 hours
# Protocol: The cataleptic action has been studied as follows.
# Benzamides are administered subcutaneously to male rats. The criterion taken for the cataleptic state is that the animal should be immobile for 30 seconds with its rear limbs apart, arranged carefully on wooden cubes 4 cm high, which thus puts the animal in an unaccustomed and uncomfortable position.
# The cataleptic action is measured when the effect is at its maximum, i.e. 5 to 7 hours after the substance has been administered.
# male mouse = test: acute toxicity in mice (LD50); type: in vivo
# Excerpt: as §1, §2
# [4] = test system: patients suffering from catatonic hebephrenia; test: clinical treatment of catatonic hebephrenia; type: in vivo; conditions: 100-300 mg daily oral or intramuscular, of 21 patients
# Protocol: 21 patients suffering from catatonic hebephrenia were treated with compound (1), a daily dose of 100-300 mg being given orally or by intramuscular injection. In 13 cases removal of inhibitions was observed, sometimes with a reversal of mood, which made it possible to make contact with the patient.
# [5] = test system: alcoholic or heroin addicts; type: in vivo; conditions: 200 mg per day oral or intramuscular, of 30 patients
# Protocol: Thus for example, 200 mg per day of compound (1) was administered orally or by intramuscular injection to 30 patients who were alcoholic or heroin addicts. In 28 cases the product acted rapidly and the drug addicts asked for more. Its effect is different from that of opiates and the main antalgics.
# [6] = test system: patients suffering from migraine; test: clinical treatment of migraine; type: in vivo; conditions: single patients, 100-300 mg per day
# Protocol: Compound (1) was administered in a dose of three tablets per day (300 mg) to a patient suffering from frequent migraines; these obliged hereto interrupt any professional activity for three or four days per month.
# Compound (1) was administered in a daily dose of 300 mg taken in three portions, to two twin brothers who suffered each month from attacks of migraine accompanied by vomiting.
# Compound (2) was administered continuously, in doses of two tablets per day (200 mg), to a person who had suffered from attacks of migraine for four years. The attacks had not responded to curative treatment (ergotamine and caffeine) or preventive treatment.
# Compound (2) was administered in doses of three tablets per day (300 mg) to a person suffering from quasi permanent occipital cephalalgia and several times a week from attacks of migraine with right hemicrania, photophobia and nausea.
# [7] = test system: patients suffering from sudden attacks of delirium; test: clinical treatment of sudden attacks of delirium; type: in vivo; conditions: 350 mg per day oral or intramuscular
# Protocol: 41 patients suffering from sudden attacks of delirium were treated with 350 mg per day of compound (2), administered orally or by intramuscular injection.
# [8] = Rattus norvegicus, 22 h, female rats, serotonin 30 mg/kg s.c. in two stages, dose protecting 50% of the animals, read-out: Antiserotonin ED50 in respect of stomach ulceration, in the rat
Compound,ED50 (serotonin [1]; [8]),"LD50 ([3]; ip, I.P.)",LD50 ([3]; iv),LD50 ([3]; po),"LD50 ([3]; sc, subcutaneous)",ED50 (apomorphine),further results
"CCN1CCCC1CNC(=O)c1cc(S(=O)(=O)CC)c(N)cc1OC (single isomer, unassigned) [Compound 4, Dextrorotatory tartrate of N-[1-ethyl 2-pyrrolidylmethyl]2-methoxy 4-amino 5-ethylsulphonyl benzamide]",0.46 mg/kg,188 mg/kg,39.8 mg/kg,1560 to 1620 mg/kg,254 to 263 mg/kg,,Antiserotonin ED50 relative to bronchospasm in the guinea-pig (serotonin [2]): 106 μg/kg/IV; Antiapomorphine ED50 in the dog (apomorphine): 12 μg/kg/s.c.
"CCN1CCCC1CNC(=O)c1cc(S(=O)(=O)CC)c(N)cc1OC (single isomer, unassigned) [Compound 5, Levorotatory tartrate of N-[1-ethyl 2-pyrrolidylmethyl]2-methoxy 4-amino 5-ethylsulphonyl benzamide]",,,,,,,"cataleptic state, % of the animals (male rats): 30%; Antiapomorphine ED50 in the dog (apomorphine): 0.28 μg/kg/s.c.; LD50 (male mouse; I.P.): 122 to 128 mg/kg; LD50 (male mouse; intravenous): 44.8 mg/kg; LD50 (male mouse; oral): 1109 to 1160 mg/kg; LD50 (male mouse; subcutaneous): 137 to 149 mg/kg"
"CCS(=O)(=O)c1cc(C(=O)NCC2CCCN2C)c(OC)cc1N (single isomer, unassigned) [Compound 6, Dextrorotatory N-1-methyl 2-pyrrolidylmethyl 2-methoxy 4-amino 5-ethylsulphonyl benzamide]",0.34 to 0.44 mg/kg,304 to 322 mg/kg,62 to 64 mg/kg,1190 to 1260 mg/kg,380 to 396 mg/kg,0.008 mg/kg,
"CCN1CCCC1CNC(=O)c1cc(S(=O)(=O)CC)c(N)cc1OC (stereo not drawn) [Compound 1, N-(1-ethyl 2-pyrrolidylmethyl) 2-methoxy 4-amino 5-ethylsulphonyl benzamide]",1 mg/kg,175 to 180 mg/kg,56 to 60 mg/kg,1020 to 1050 mg/kg,224 to 250 mg/kg,0.00029 mg/kg,cases with removal of inhibitions [4]: 13 cases; Antiserotonin ED50 relative to bronchospasm in the guinea-pig (serotonin [2]): 74 μg/kg/IV; cases in which the product acted rapidly [5]: 28 cases; effect on migraine (in words) [6]: The migraines decreased from the first month and disappeared altogether from the second month; also recorded: For one of the twins the migraine disappeared immediately; also recorded: For the other the pain disappeared from the second method and only a few attacks of nausea persisted
"CCS(=O)(=O)c1cc(C(=O)NCC2CCCN2C)c(OC)cc1N (stereo not drawn) [Compound 2, N-[1-methyl 2-pyrrolidylmethyl]2-methoxy 4-amino 5-ethylsulphonyl benzamide]",0.4 mg/kg,210 to 217 mg/kg,56 to 57 mg/kg,1330 mg/kg,280 mg/kg,0.0008 mg/kg,"antidepressive action ([7]; 41 patients): there was an antidepressive action; tolerance ([7]; 41 patients, all cases): excellent tolerance in all cases; cases with a very good antipsychotic action in sudden attacks of delirium ([7]; of 41 patients): 38 cases; effect on migraine (in words) [6]: their intensity is decreasing; also recorded: From the third week the migraine attacks disappeared completely"
"C=CCN1CCCC1CNC(=O)c1cc(S(=O)(=O)CC)c(N)cc1OC (stereo not drawn) [Compound 3, N-[1-allyl 2-pyrrolidylmethyl]2-methoxy 4-amino 5-ethylsulphonyl benzamide]",0.65 mg/kg,216 to 217 mg/kg,106 to 107 mg/kg,2230 to 2380 mg/kg,312 to 330 mg/kg,0.00065 mg/kg,
"CCCS(=O)(=O)c1cc(C(=O)NCC2CCCN2CC)c(OC)cc1N (stereo not drawn) [Compound 7, N(1ethyl 2pyrrolidylmethyl) 2methoxy 4amino 5propylsulphonyl benzamide]",3.2 mg/kg,160 to 165 mg/kg,43 to 46.8 mg/kg,570 to 629 mg/kg,140 to 144 mg/kg,0.0016 mg/kg,
"CCN1CCCC1CNC(=O)c1cc(S(C)(=O)=O)c(N)cc1OC (stereo not drawn) [Compound 8, N-[1-ethyl 2-pyrrolidylmethyl]2-methoxy 4-amino 5-methylsulphonyl benzamide]",3 mg/kg,234 to 238 mg/kg,46.5 to 50 mg/kg,625 to 660 mg/kg,208 to 225 mg/kg,0.0027 mg/kg,
"COc1cc(N)c(S(C)(=O)=O)cc1C(=O)NCC1CCCN1C (stereo not drawn) [Compound 9, N-[1-methyl 2-pyrrolidylmethyl]2-methoxy 4-amino 5-methylsulphonyl benzamide]",1.14 mg/kg,200 to 216 mg/kg,54 mg/kg,,202 mg/kg,0.007 mg/kg,
"CCN1CCCC1CNC(=O)c1cc(S(N)(=O)=O)ccc1OC (stereo not drawn) [sulpiride, reference compound]",,,,,,,"ED50 (serotonin [1]; rat, comparator value in text, read-out: antiserotonin ED50 relative to stomach ulceration in the rat (comparator, text)): 110 mg/kg"

# From patent US4401822A, “Derivatives of 4-amino-5-alkyl sulphonyl orthoanisamides” (Societe de'Etudes Scientifiques et Industrielles de …, priority 1978, dated 1983)
